Measured values: patent publication US20260232767A1, “INTERLEUKIN-23 RECEPTOR ANTAGONIST PEPTIDES FOR USE IN THE TREATMENT OF PSORIASIS” (Janssen Pharmaceutica NV, priority 2023, published 2026)

System: subjects with moderate-to-severe plaque psoriasis
Experiment: Hematology and chemistry laboratory values by CTCAE grade
Type: in vivo, human
Details: through Week 56
Source text: The proportion of participants who discontinued study intervention due to one or more AEs was low (n=4). All events were singular in nature with no apparent dose-dependent increase (Table 48 and Table 52). The number of participants with abnormal hematology and chemistry laboratory values with CTCAE toxicity grade≥3 were low through the end of the study (Table 43 through Table 46). There was no apparent dose-dependent increase in laboratory abnormality occurrences.

CC(=O)NCCCC[C@@H]1NC(=O)[C@H](Cc2c[nH]c3c(C)cccc23)NC(=O)[C@H]([C@@H](C)O)NC(=O)[C@H](CC(N)=O)NC(=O)[C@@H](NC(C)=O)C(C)(C)SSC(C)(C)[C@@H](C(=O)N[C@@H](Cc2ccc(OCCN)cc2)C(=O)N[C@@H](Cc2ccc3ccccc3c2)C(=O)NC2(C(=O)N[C@@H](CCC(=O)O)C(=O)N[C@@H](CC(N)=O)C(=O)N[C@@H](Cc3cccnc3)C(=O)N(C)CC(N)=O)CCOCC2)NC1=O [IL-23 receptor antagonist peptide, Ac-[Pen]*-N-T-[W(7-Me)]-[Lys(Ac)]-[Pen]*-Phe[4-(2-aminoethoxy)]-[2-Nal]-[THP]-E-N-[3-Pal]-Sarc-NH2 (*[Pen]-[Pen]* formdisulfidebond)]
10: Alanine Aminotransferase (increased): Subjects with Grade 1 (100 mg BID)
5: Platelets (×10^9/L) (decreased): subjects with Grade 1 (25 mg QD) | Platelets (×10^9/L) (decreased): subjects with postbaseline maximum toxicity grade >0 (25 mg QD) | Hemoglobin (g/L) (decreased): subjects with postbaseline maximum toxicity grade >0 (50 mg QD) | Total Bilirubin (increased): Subjects with postbaseline maximum toxicity grade >0 (50 mg QD)
0: Platelets (×10^9/L) (decreased): subjects with Grade 2 (25 mg QD) | Platelets (×10^9/L) (decreased): subjects with Grade 3 (25 mg QD) | Platelets (×10^9/L) (decreased): subjects with Grade 4 (25 mg QD) | Potassium (decreased): Subjects with Grade 1 (25 mg QD) | Potassium (decreased): Subjects with Grade 2 (25 mg QD) | Potassium (decreased): Subjects with Grade 3 (25 mg QD) | Potassium (decreased): Subjects with Grade 4 (25 mg QD) | Potassium (decreased): Subjects with postbaseline maximum toxicity grade >0 (25 mg QD) | Potassium (increased): Subjects with Grade 3 (25 mg QD) | Potassium (increased): Subjects with Grade 4 (25 mg QD) | Sodium (decreased): Subjects with Grade 2 (25 mg QD) | Sodium (decreased): Subjects with Grade 3 (25 mg QD) | Sodium (decreased): Subjects with Grade 4 (25 mg QD) | Sodium (increased): Subjects with Grade 2 (25 mg QD) | Sodium (increased): Subjects with Grade 3 (25 mg QD) | Sodium (increased): Subjects with Grade 4 (25 mg QD) | Total Bilirubin (increased): Subjects with Grade 2 (25 mg QD) | Total Bilirubin (increased): Subjects with Grade 3 (25 mg QD) | Total Bilirubin (increased): Subjects with Grade 4 (25 mg QD) | Triglycerides (increased): Subjects with Grade 4 (25 mg QD) | WBC (×10^9/L) (decreased): subjects with Grade 2 (25 mg QD) | WBC (×10^9/L) (decreased): subjects with Grade 3 (25 mg QD) | WBC (×10^9/L) (decreased): subjects with Grade 4 (25 mg QD) | WBC (×10^9/L) (increased): subjects with Grade 1 (25 mg QD) | WBC (×10^9/L) (increased): subjects with Grade 2 (25 mg QD) | WBC (×10^9/L) (increased): subjects with Grade 3 (25 mg QD) | WBC (×10^9/L) (increased): subjects with Grade 4 (25 mg QD) | WBC (×10^9/L) (increased): subjects with postbaseline maximum toxicity grade >0 (25 mg QD) | Alanine Aminotransferase (increased): Subjects with Grade 2 (50 mg QD) | Alanine Aminotransferase (increased): Subjects with Grade 3 (50 mg QD) | Alanine Aminotransferase (increased): Subjects with Grade 4 (50 mg QD) | Albumin (decreased): Subjects with Grade 1 (50 mg QD) | Albumin (decreased): Subjects with Grade 2 (50 mg QD) | Albumin (decreased): Subjects with Grade 3 (50 mg QD) | Albumin (decreased): Subjects with Grade 4 (50 mg QD) | Albumin (decreased): Subjects with postbaseline maximum toxicity grade >0 (50 mg QD) | Alkaline Phosphatase (increased): Subjects with Grade 2 (50 mg QD) | Alkaline Phosphatase (increased): Subjects with Grade 3 (50 mg QD) | Alkaline Phosphatase (increased): Subjects with Grade 4 (50 mg QD) | Aspartate Aminotransferase (increased): Subjects with Grade 2 (50 mg QD) | Aspartate Aminotransferase (increased): Subjects with Grade 3 (50 mg QD) | Aspartate Aminotransferase (increased): Subjects with Grade 4 (50 mg QD) | Calcium corrected (decreased): Subjects with Grade 2 (50 mg QD) | Calcium corrected (decreased): Subjects with Grade 3 (50 mg QD) | Calcium corrected (decreased): Subjects with Grade 4 (50 mg QD) | Calcium corrected (increased): Subjects with Grade 1 (50 mg QD) | Calcium corrected (increased): Subjects with Grade 2 (50 mg QD) | Calcium corrected (increased): Subjects with Grade 3 (50 mg QD) | Calcium corrected (increased): Subjects with Grade 4 (50 mg QD) | Calcium corrected (increased): Subjects with postbaseline maximum toxicity grade >0 (50 mg QD) | Cholesterol (increased): Subjects with Grade 2 (50 mg QD) | Cholesterol (increased): Subjects with Grade 3 (50 mg QD) | Cholesterol (increased): Subjects with Grade 4 (50 mg QD) | Creatine Kinase (increased): Subjects with Grade 3 (50 mg QD) | Creatinine (increased): Subjects with Grade 2 (50 mg QD) | Creatinine (increased): Subjects with Grade 3 (50 mg QD) | Creatinine (increased): Subjects with Grade 4 (50 mg QD) | Gamma Glutamyl Transferase (increased): Subjects with Grade 2 (50 mg QD) | Gamma Glutamyl Transferase (increased): Subjects with Grade 3 (50 mg QD) | Gamma Glutamyl Transferase (increased): Subjects with Grade 4 (50 mg QD) | Glucose (decreased): Subjects with Grade 2 (50 mg QD) | Glucose (decreased): Subjects with Grade 3 (50 mg QD) | Glucose (decreased): Subjects with Grade 4 (50 mg QD) | Hemoglobin (g/L) (decreased): subjects with Grade 3 (50 mg QD) | Hemoglobin (g/L) (decreased): subjects with Grade 4 (50 mg QD) | Hemoglobin (g/L) (increased): subjects with Grade 1 (50 mg QD) | Hemoglobin (g/L) (increased): subjects with Grade 2 (50 mg QD) | Hemoglobin (g/L) (increased): subjects with Grade 3 (50 mg QD) | Hemoglobin (g/L) (increased): subjects with Grade 4 (50 mg QD) | Hemoglobin (g/L) (increased): subjects with postbaseline maximum toxicity grade >0 (50 mg QD) | Lymphocytes (×10^9/L) (decreased): subjects with Grade 3 (50 mg QD) | Lymphocytes (×10^9/L) (decreased): subjects with Grade 4 (50 mg QD) | Lymphocytes (×10^9/L) (increased): subjects with Grade 1 (50 mg QD) | Lymphocytes (×10^9/L) (increased): subjects with Grade 2 (50 mg QD) | Lymphocytes (×10^9/L) (increased): subjects with Grade 3 (50 mg QD) | Lymphocytes (×10^9/L) (increased): subjects with Grade 4 (50 mg QD) | Lymphocytes (×10^9/L) (increased): subjects with postbaseline maximum toxicity grade >0 (50 mg QD) | Magnesium (decreased): Subjects with Grade 1 (50 mg QD) | Magnesium (decreased): Subjects with Grade 2 (50 mg QD) | Magnesium (decreased): Subjects with Grade 3 (50 mg QD) | Magnesium (decreased): Subjects with Grade 4 (50 mg QD) | Magnesium (decreased): Subjects with postbaseline maximum toxicity grade >0 (50 mg QD) | Magnesium (increased): Subjects with Grade 2 (50 mg QD) | Magnesium (increased): Subjects with Grade 3 (50 mg QD) | Magnesium (increased): Subjects with Grade 4 (50 mg QD) | Neutrophils (×10^9/L) (decreased): subjects with Grade 3 (50 mg QD) | Neutrophils (×10^9/L) (decreased): subjects with Grade 4 (50 mg QD) | Platelets (×10^9/L) (decreased): subjects with Grade 1 (50 mg QD) | Platelets (×10^9/L) (decreased): subjects with Grade 2 (50 mg QD) | Platelets (×10^9/L) (decreased): subjects with Grade 3 (50 mg QD) | Platelets (×10^9/L) (decreased): subjects with Grade 4 (50 mg QD) | Platelets (×10^9/L) (decreased): subjects with postbaseline maximum toxicity grade >0 (50 mg QD) | Potassium (decreased): Subjects with Grade 1 (50 mg QD) | Potassium (decreased): Subjects with Grade 2 (50 mg QD) | Potassium (decreased): Subjects with Grade 3 (50 mg QD) | Potassium (decreased): Subjects with Grade 4 (50 mg QD) | Potassium (decreased): Subjects with postbaseline maximum toxicity grade >0 (50 mg QD) | Potassium (increased): Subjects with Grade 2 (50 mg QD) | Potassium (increased): Subjects with Grade 4 (50 mg QD) | Sodium (decreased): Subjects with Grade 1 (50 mg QD) | Sodium (decreased): Subjects with Grade 2 (50 mg QD) | Sodium (decreased): Subjects with Grade 3 (50 mg QD) | Sodium (decreased): Subjects with Grade 4 (50 mg QD) | Sodium (decreased): Subjects with postbaseline maximum toxicity grade >0 (50 mg QD) | Sodium (increased): Subjects with Grade 1 (50 mg QD) | Sodium (increased): Subjects with Grade 2 (50 mg QD) | Sodium (increased): Subjects with Grade 3 (50 mg QD) | Sodium (increased): Subjects with Grade 4 (50 mg QD) | Sodium (increased): Subjects with postbaseline maximum toxicity grade >0 (50 mg QD) | Total Bilirubin (increased): Subjects with Grade 3 (50 mg QD) | Total Bilirubin (increased): Subjects with Grade 4 (50 mg QD) | Triglycerides (increased): Subjects with Grade 1 (50 mg QD) | Triglycerides (increased): Subjects with Grade 4 (50 mg QD) | WBC (×10^9/L) (decreased): subjects with Grade 3 (50 mg QD) | WBC (×10^9/L) (decreased): subjects with Grade 4 (50 mg QD) | WBC (×10^9/L) (increased): subjects with Grade 1 (50 mg QD) | WBC (×10^9/L) (increased): subjects with Grade 2 (50 mg QD) | WBC (×10^9/L) (increased): subjects with Grade 3 (50 mg QD) | WBC (×10^9/L) (increased): subjects with Grade 4 (50 mg QD) | WBC (×10^9/L) (increased): subjects with postbaseline maximum toxicity grade >0 (50 mg QD) | Alanine Aminotransferase (increased): Subjects with Grade 3 (100 mg BID) | Alanine Aminotransferase (increased): Subjects with Grade 4 (100 mg BID) | Albumin (decreased): Subjects with Grade 1 (100 mg BID) | Albumin (decreased): Subjects with Grade 2 (100 mg BID) | Albumin (decreased): Subjects with Grade 3 (100 mg BID) | Albumin (decreased): Subjects with Grade 4 (100 mg BID) | Albumin (decreased): Subjects with postbaseline maximum toxicity grade >0 (100 mg BID) | Alkaline Phosphatase (increased): Subjects with Grade 1 (100 mg BID) | Alkaline Phosphatase (increased): Subjects with Grade 2 (100 mg BID) | Alkaline Phosphatase (increased): Subjects with Grade 3 (100 mg BID) | Alkaline Phosphatase (increased): Subjects with Grade 4 (100 mg BID) | Alkaline Phosphatase (increased): Subjects with postbaseline maximum toxicity grade >0 (100 mg BID) | Aspartate Aminotransferase (increased): Subjects with Grade 4 (100 mg BID) | Calcium corrected (decreased): Subjects with Grade 3 (100 mg BID) | Calcium corrected (decreased): Subjects with Grade 4 (100 mg BID) | Calcium corrected (increased): Subjects with Grade 1 (100 mg BID) | Calcium corrected (increased): Subjects with Grade 2 (100 mg BID) | Calcium corrected (increased): Subjects with Grade 3 (100 mg BID) | Calcium corrected (increased): Subjects with Grade 4 (100 mg BID) | Calcium corrected (increased): Subjects with postbaseline maximum toxicity grade >0 (100 mg BID) | Cholesterol (increased): Subjects with Grade 2 (100 mg BID) | Cholesterol (increased): Subjects with Grade 3 (100 mg BID) | Cholesterol (increased): Subjects with Grade 4 (100 mg BID)
7: Potassium (increased): Subjects with postbaseline maximum toxicity grade >0 (25 mg QD) | Aspartate Aminotransferase (increased): Subjects with Grade 1 (100 mg BID)
9: Aspartate Aminotransferase (increased): Subjects with postbaseline maximum toxicity grade >0 (100 mg BID)
